Results from patent US6607890B1, “Mismatch-recognizing molecules” (Japan Science and Technology Corporation, priority 1999, dated 2003).

Key:
Assay type in all cases: binding
normal G-C base pair = test: DNase I footprinting titration on 5′-32P labeled 52-mer double-stranded DNA, normal G-C site; conditions: concentration increased from 0 up to 500 μM, FIG. 1
Procedure: (§1) Accordingly, it was examined whether such a compound having two 1,8-naphthylidien moieties can be incorporated into chains of a nucleic acid by constructing a paring with each mismatched guanine in a case when mismatched base pairing of guanine—guanine exists in a double-stranded nucleic acid. 52-mer double-stranded DNA labeled with 5′-^32P having a GC base pair, a GA mismatched base pair and a GG mismatched base pair in the double-stranded DNA was prepared. The partial sequences of the corresponding parts are illustrated as follows.
(§2) Using this double-stranded DNA, an inhibited position of DNA cleavage by DNase I was analyzed by means of DNase I (DNA hydrolase) footprinting titration in the presence of the compound of the formula (III) at various concentrations.
Cleavage by DNase I (DNA hydrolase) is shown in black and inhibition in a position of the cleavage by DNase is shown in white.
(§3) A double-stranded DNA was prepared by hybridizing 5′-end ^32P labeled 52-mer DNA to form mismatched base pairs with G-G and G-A (refer to the right figures in FIG. 1).
Various concentrations of the compound obtained in example 1 were added to the double-stranded DNA, and analyzed by DNA footprinting using DNase I. […]

G-A mismatched base pair = test: DNase I footprinting titration on 5′-32P labeled 52-mer double-stranded DNA, G-A mismatched site
Procedure: as §1, §2
(§4) FIG. 2 is a graph showing a relationship between an intensity of cleaved band and a concentration of added naphthyriidine in FIG. 1. […] In FIG. 2, the abscissa indicates concentration (M) of the compound of the formula (III) added. In FIG. 2, black circle (●) in the graph indicates mismatched site of G-G, and black triangle (▴) indicates mismatched site of G-A.
as §3
(§5) Various concentrations of the compound obtained in example 1 were added to the double-stranded DNA, and analyzed by DNA footprinting using DNase I.
(§6) The double-stranded DNA (<4 nM strand concentration) was incubated with the compound obtained in example 1, which was adjusted to various concentrations with tris-HCl buffer (10 mM, pH 7.6) containing NaCl (100 mM) and MgCl2 (5 mM), at 4° C. for 12 hours. 0.2 U DNase I (DNA hydrolase) was added thereto and incubated at 25° C. for […]. DNA was recovered by mans of ethanol precipitation and electrophoresed using a gel containing 12% polyacrylamide and 7M urea.

G-G mismatched base pair = test: DNase I footprinting titration on 5′-32P labeled 52-mer double-stranded DNA, G-G mismatched site
Procedure: as §1, §2, §4, §3, §5, §6

[1] = calculated from DNase I footprinting titration (FIG. 2)

- effect on DNase I cleavage at the normal G-C base pairing (normal G-C base pair): cleavage by DNase I occurs
- concentration from which the inhibitory action against cleavage initiates in the G-A mismatched site (G-A mismatched base pair; DNase I cleavage, FIG. 2): approximately 10^−6 M
- inhibition of the cleavage in the G-A mismatched site (G-A mismatched base pair; at around (500 μM) compound): about 90%
- binding constant to the mismatched base G-A [Ka (GAmis)] (G-A mismatched base pair; [1]): 16300 M⁻¹
- concentration at which the cleavage in the G-G mismatched site is inhibited almost completely (G-G mismatched base pair; DNase I cleavage, FIG. 2): ≥ 10^−5 M
- ratio of both binding constants [(Ka (GGmis))/(Ka (GAmis))] (G-G mismatched base pair; G-G versus G-A mismatch): 696
- binding constant to the mismatched base G-G [Ka (GGmis)] (G-G mismatched base pair; [1]): 1.13e+07 M⁻¹
SMILES: Cc1ccc2ccc(NC(=O)CCNCCC(=O)Nc3ccc4ccc(C)nc4n3)nc2n1 [formula (III), dinaphthylidinamide]
